One may read the inhibition as the drop in the measured response relative to a control, in per cent.

The test system of series [1] is MDA-MB-231. In words: Inhibition of PI3K in human MDA-MB-231 cells assessed as inhibition of AKT phosphorylation at 1 to 10 uM after 24 hrs by Western blot analysis. Format: cell-based. In general terms: Immunoblotting shows a protein as a band on a membrane.
The test system of series [2] is MDA-MB-231. In words: Effect on total AKT protein level in human MDA-MB-231 cells at 1 to 10 uM after 24 hrs by Western blot analysis. Format: functional, cell-based.
The subject of series [3] is MDA-MB-231. In words: Inhibition of PI3K-dependent Rac1 activation in human MDA-MB-231 cells assessed as suppression of serum-induced cell invasion into matrigel at 25 uM preincubated for 30 mins with cells followed by loading into upper well of matrigel coated filter measured after 15 hrs by Boyden chamber analysis relative to control. Format: cell-based.
Series [4] has as its system MDA-MB-231. Description: Cytotoxicity against human MDA-MB-231 cells assessed as cell viability at 100 to 200 uM after 24 hrs by MTT assay. Format: cell-based. To be noted: mda-mb-231, 24 h. (In general: Formazan colour is commonly taken as a measure of viable cells.)
The species entered for series [5] is Homo sapiens. Description: Inhibition of PI3K-dependent Rac1 activation in human MDA-MB-231 cells assessed as suppression of serum-induced cell migration at 10 uM after 24 hrs by wound-healing assay relative to control. Format: cell-based.
Series [6] has as its system MDA-MB-231. In words: Inhibition of PI3K-dependent Rac1 activation in human MDA-MB-231 cells at 10 uM after 30 mins by ELISA relative to untreated control. Format: cell-based. Background: An ELISA detects its analyte on a solid surface through an enzyme-linked reagent.
In series [7] the test system is MDA-MB-231. In words: Inhibition of PI3K in human MDA-MB-231 cells assessed as inhibition of AKT phosphorylation at 10 to 50 uM after 24 hrs by Western blot analysis. Format: cell-based.
For series [8], the species on record is Homo sapiens. Description: Inhibition of PI3K-dependent Rac1 activation in human MDA-MB-231 cells assessed as suppression of serum-induced cell migration at 25 uM after 24 hrs by wound-healing assay relative to control. Format: cell-based.
The subject of series [9] is MDA-MB-231. Description: Inhibition of PI3K-dependent Rac1 activation in human MDA-MB-231 cells assessed as suppression of serum-induced cell invasion into matrigel at 10 uM preincubated for 30 mins with cells followed by loading into upper well of matrigel coated filter measured after 15 hrs by Boyden chamber analysis relative to control. Format: cell-based.
Series [10] deals with MDA-MB-231. In words: Inhibition of PI3K-dependent Rac1 activation in human MDA-MB-231 cells assessed as downregulation of WAVE-2 protein expression at 10 to 50 uM after 24 hrs by Western blot analysis. Format: cell-based.
The subject of series [11] is MDA-MB-231. In words: Inhibition of PI3K phosphorylation in human MDA-MB-231 cells at 10 to 50 uM after 24 hrs by Western blot analysis. Format: cell-based.
Series [12] has as its system MDA-MB-231. In words: Inhibition of PI3K-dependent Rac1 activation in human MDA-MB-231 cells assessed as downregulation of Arp-2 protein expression at 10 to 50 uM after 24 hrs by Western blot analysis. Format: cell-based.
For series [13], the system named is MDA-MB-231. Description: Effect on total Rac1 protein expression in human MDA-MB-231 cells after 30 mins by Western blot analysis. Format: functional, cell-based.
In series [14] the test system is MDA-MB-231. Description: Effect on total LIMK1/2 protein level in human MDA-MB-231 cells at 10 to 50 uM after 24 hrs by Western blot analysis. Format: functional, cell-based.
The test system of series [15] is MDA-MB-231. Description: Effect on total PAK1 protein level in human MDA-MB-231 cells at 10 to 50 uM after 24 hrs by Western blot analysis. Format: functional, cell-based.
Series [16] relates to MDA-MB-231. In words: Inhibition of PI3K-dependent Rac1 activation in human MDA-MB-231 cells assessed as inhibition of lamellipodia formation at 50 uM after 24 hrs by rhodamine phalloidin/DAPI staining-based confocal microscopic analysis. Format: cell-based.
The subject of series [17] is MDA-MB-231. Description: Inhibition of PI3K-dependent Rac1 activation in human MDA-MB-231 cells assessed as inhibition of LIMK1/2 phosphorylation at 10 to 50 uM after 24 hrs by Western blot analysis. Format: cell-based.
The subject of series [18] is MDA-MB-231. Description: Effect on total AKT protein level in human MDA-MB-231 cells at 10 to 50 uM after 24 hrs by Western blot analysis. Format: functional, cell-based.
For series [19], the system named is MDA-MB-231. In words: Effect on total PI3K protein level in human MDA-MB-231 cells at 10 to 50 uM after 24 hrs by Western blot analysis. Format: functional, cell-based.
Series [20] deals with MDA-MB-231. In words: Inhibition of PI3K-dependent Rac1 activation in human MDA-MB-231 cells assessed as downregulation of Arp-3 protein expression at 10 to 50 uM after 24 hrs by Western blot analysis. Format: cell-based.
Series [21] concerns MDA-MB-231. Description: Inhibition of PI3K-dependent Rac1 activation in human MDA-MB-231 cells at 50 uM after 30 mins by ELISA relative to untreated control. Format: cell-based.
Series [22] deals with MDA-MB-231. In words: Inhibition of PI3K in human MDA-MB-231 cells assessed as downregulation of activated Rac1-GTP protein expression at 50 uM after 30 mins by Western blot analysis. Format: cell-based.
Series [23] relates to MDA-MB-231. In words: Effect on total cofilin protein level in human MDA-MB-231 cells at 10 to 50 uM after 24 hrs by Western blot analysis. Format: functional, cell-based.
Series [24] deals with MDA-MB-231. In words: Inhibition of PI3K-dependent Rac1 activation in human MDA-MB-231 cells assessed as inhibition of cofilin phosphorylation at 10 to 50 uM after 24 hrs by Western blot analysis. Format: cell-based.
The subject of series [25] is MDA-MB-231. In words: Inhibition of PI3K-dependent Rac1 activation in human MDA-MB-231 cells assessed as inhibition of PAK1 phosphorylation at 10 to 50 uM after 24 hrs by Western blot analysis. Format: cell-based.
Series [26] has as its system MDA-MB-231. In words: Inhibition of PI3K-dependent Rac1 activation in human MDA-MB-231 cells at 25 uM after 30 mins by ELISA relative to untreated control. Format: cell-based.
For series [27], the system named is MDA-MB-231. In words: Inhibition of PI3K-dependent Rac1 activation in human MDA-MB-231 cells assessed as suppression of serum-induced cell invasion into matrigel at 50 uM preincubated for 30 mins with cells followed by loading into upper well of matrigel coated filter measured after 15 hrs by Boyden chamber analysis relative to control. Format: cell-based.
The species entered for series [28] is Homo sapiens. Description: Inhibition of PI3K-dependent Rac1 activation in human MDA-MB-231 cells assessed as suppression of serum-induced cell migration at 50 uM after 24 hrs by wound-healing assay relative to control. Format: cell-based.
The test system of series [29] is MDA-MB-231. In words: Cytotoxicity against human MDA-MB-231 cells assessed as cell viability up to 50 uM after 24 hrs by MTT assay. Format: cell-based. To be noted: mda-mb-231, 24 h.

Calls of active or inactive are those of the source. The calls are words filed in the database; no cut-off is given here.

Regarding `COC[C@H]1OC(=O)c2coc3c2[C@@]1(C)C1=C(C3=O)[C@@H]2CCC(=O)[C@@]2(C)C[C@H]1OC(C)=O`, in the series with MDA-MB-231 [1], the inhibition entry is “Active”. The outcome in the series on MDA-MB-231 [2] was inactive.

Take `COc1ccc(/C=C/c2cc(O)cc(O)c2)cc1O`: the inhibition with MDA-MB-231 [3] was determined as 50%; in the series filed under Homo sapiens [5], 25%; with MDA-MB-231 [6] it was 17%; in the series listed under Homo sapiens [8], 44%; with MDA-MB-231 [9] it was 26%; with MDA-MB-231 [21], 44%. Besides, the inhibition with MDA-MB-231 [26] stood at 25%; in the series on MDA-MB-231 [27] it was 68%; in the series listed under Homo sapiens [28], 70%. In addition, the Activity entry in the series with MDA-MB-231 [4] is “Toxic”; in the series on MDA-MB-231 [29], “Non-toxic”. For the same compound, the inhibition entry in the series with MDA-MB-231 [7], in the series on MDA-MB-231 [10], in the series on MDA-MB-231 [11], in the series on MDA-MB-231 [12], in the series on MDA-MB-231 [16] and in the series on MDA-MB-231 [17] was “Active” in each case. The inhibition result in the series with MDA-MB-231 [20], with MDA-MB-231 [22], in the series on MDA-MB-231 [24] and in the series with MDA-MB-231 [25] was “Active” throughout. The result in the series on MDA-MB-231 [13], with MDA-MB-231 [14], with MDA-MB-231 [15], in the series with MDA-MB-231 [18], in the series with MDA-MB-231 [19] and in the series with MDA-MB-231 [23] was inactive.

For the origin of these results see ChEMBL document CHEMBL3297716, “Rhapontigenin suppresses cell migration and invasion by inhibiting the PI3K-dependent Rac1 signaling pathway in MDA-MB-231 human breast cancer cells” (J Nat Prod, 2014).
